Columns and labels:
Syrian golden hamster [1] = test: Decrease in liver triglyceride level in high fat-diet fed syrian golden hamster model of dyslipidemia at 10 mg/kg administered qd through oral gavage measured after 21 days by FPLC analysis relative to control; type: functional, Mesocricetus auratus; parameters: scale not given: the % may be the effect or the level left
Syrian golden hamster [2] = test: Decrease in liver triglyceride level in high fat-diet fed syrian golden hamster model of dyslipidemia at 1 mg/kg administered qd through oral gavage measured after 21 days by FPLC analysis relative to control; type: functional, Mesocricetus auratus; parameters: scale not given: the % may be the effect or the level left
Syrian golden hamster [3] = test: Decrease in liver cholesterol level in high fat-diet fed syrian golden hamster model of dyslipidemia at 10 mg/kg administered qd through oral gavage measured after 21 days by FPLC analysis relative to control; type: functional, Mesocricetus auratus; parameters: scale not given: the % may be the effect or the level left
Syrian golden hamster [4] = test: Decrease in plasma LDL cholesterol level in high fat-diet fed syrian golden hamster model of dyslipidemia at 3 mg/kg administered qd through oral gavage measured after 21 days by FPLC analysis relative to control; type: functional, Mesocricetus auratus; parameters: scale not given: the % may be the effect or the level left
Syrian golden hamster [5] = test: Decrease in plasma triglyceride level in high fat-diet fed syrian golden hamster model of dyslipidemia at 3 mg/kg administered qd through oral gavage measured after 21 days by FPLC analysis relative to control; type: functional, Mesocricetus auratus; parameters: scale not given: the % may be the effect or the level left
Syrian golden hamster [6] = test: Decrease in plasma triglyceride level in high fat-diet fed syrian golden hamster model of dyslipidemia at 1 mg/kg administered qd through oral gavage measured after 21 days by FPLC analysis relative to control; type: functional, Mesocricetus auratus; parameters: scale not given: the % may be the effect or the level left
[7] = Tmax in cynomolgus monkey at 2 mg/kg, po; type: ADME, organism-based, Macaca fascicularis; settings: in vivo
[8] = Cmax in dog at 2 mg/kg, po; type: ADME, organism-based, Canis lupus familiaris; parameters: dose 2 mg/kg, route oral; settings: in vivo
[9] = AUC (0 to 8 hrs) in Balb/c mouse at 10 mg/kg, po; type: ADME, organism-based; parameters: dose 10 mg/kg, time < 8 hr, route oral; settings: in vivo
[10] = AUC (0 to 8 hrs) in dog at 2 mg/kg, po; type: ADME, organism-based, Canis lupus familiaris; parameters: dose 2 mg/kg, time < 8 hr, route oral; settings: in vivo
[11] = AUC (0 to 8 hrs) in cynomolgus monkey at 1 mg/kg, iv; type: ADME, organism-based, Macaca fascicularis; parameters: time < 8 hr, dose 1 mg/kg, route intravenous; settings: in vivo
[12] = AUC (0 to 8 hrs) in cynomolgus monkey at 2 mg/kg, po; type: ADME, organism-based, Macaca fascicularis; parameters: time < 8 hr, dose 2 mg/kg, route oral; settings: in vivo
[13] = Plasma clearance in dog at 1 mg/kg, iv; type: ADME, organism-based, Canis lupus familiaris
[14] = Half life in cynomolgus monkey at 1 mg/kg, iv; type: ADME, organism-based, Macaca fascicularis; settings: in vivo
[15] = Oral bioavailability in Balb/c mouse at 10 mg/kg; type: ADME, organism-based; settings: in vivo
[16] = Protein binding in mouse plasma; type: ADME, cell-free; settings: read-out: PPB (converted)
[17] = Protein binding in cynomolgus monkey plasma; type: ADME, cell-free, Macaca fascicularis; settings: read-out: PPB
Cytochrome P450 3A4 = Cytochrome P450 3A4 (Homo sapiens, UniProt P08684); test: Inhibition of CYP3A4 (unknown origin); type: ADME
Mus musculus [18] = test: Increase in ApoA1 level in transgenic mouse expressing human ApoA1 at 50 mg/kg administered qd through oral gavage measured after 10 days relative to vehicle-treated control; type: functional
Cytochrome P450 2C19 = Cytochrome P450 2C19 (Homo sapiens, UniProt P33261); test: Inhibition of CYP2C19 in human TC5 cells; type: ADME, cell-based
[19] = molecular target: Voltage-gated inwardly rectifying potassium channel KCNH2 (Homo sapiens, UniProt Q12809); test: Inhibition of human ERG by flux-based assay
Homo sapiens = species: Homo sapiens; test: Inhibition of sodium channel (unknown origin) assessed as channel block at 10 uM and 1 Hz by electrophysiology method
[20] = Cardiovascular toxicity in purkinje fiber (unknown origin) assessed as change in action potential duration at 90% repolarization at 30 uM
Rhesus monkey = test: Cardiovascular toxicity in monkey assessed as change in electrocardiographic effect up to 20 mg/kg administered as single dose by telemetry test; type: organism-based, Macaca mulatta; settings: in vivo
Mus musculus [21] = test: Decrease in triglyceride level in transgenic mouse expressing human ApoA1 at 3 mg/kg administered qd through oral gavage measured after 10 days relative to vehicle control; type: functional; parameters: scale not given: the % may be the effect or the level left
Mus musculus [22] = test: Decrease in triglyceride level in transgenic mouse expressing human ApoA1 at 10 mg/kg administered qd through oral gavage measured after 10 days relative to vehicle control; type: functional; parameters: scale not given: the % may be the effect or the level left
Mus musculus [23] = test: Increase in HDL cholesterol level in transgenic mouse expressing human ApoA1 compound administered qd through oral gavage measured after 10 days; type: functional, organism-based

Chain of Voltage-gated inwardly rectifying potassium channel KCNH2 (Q12809 whole entry): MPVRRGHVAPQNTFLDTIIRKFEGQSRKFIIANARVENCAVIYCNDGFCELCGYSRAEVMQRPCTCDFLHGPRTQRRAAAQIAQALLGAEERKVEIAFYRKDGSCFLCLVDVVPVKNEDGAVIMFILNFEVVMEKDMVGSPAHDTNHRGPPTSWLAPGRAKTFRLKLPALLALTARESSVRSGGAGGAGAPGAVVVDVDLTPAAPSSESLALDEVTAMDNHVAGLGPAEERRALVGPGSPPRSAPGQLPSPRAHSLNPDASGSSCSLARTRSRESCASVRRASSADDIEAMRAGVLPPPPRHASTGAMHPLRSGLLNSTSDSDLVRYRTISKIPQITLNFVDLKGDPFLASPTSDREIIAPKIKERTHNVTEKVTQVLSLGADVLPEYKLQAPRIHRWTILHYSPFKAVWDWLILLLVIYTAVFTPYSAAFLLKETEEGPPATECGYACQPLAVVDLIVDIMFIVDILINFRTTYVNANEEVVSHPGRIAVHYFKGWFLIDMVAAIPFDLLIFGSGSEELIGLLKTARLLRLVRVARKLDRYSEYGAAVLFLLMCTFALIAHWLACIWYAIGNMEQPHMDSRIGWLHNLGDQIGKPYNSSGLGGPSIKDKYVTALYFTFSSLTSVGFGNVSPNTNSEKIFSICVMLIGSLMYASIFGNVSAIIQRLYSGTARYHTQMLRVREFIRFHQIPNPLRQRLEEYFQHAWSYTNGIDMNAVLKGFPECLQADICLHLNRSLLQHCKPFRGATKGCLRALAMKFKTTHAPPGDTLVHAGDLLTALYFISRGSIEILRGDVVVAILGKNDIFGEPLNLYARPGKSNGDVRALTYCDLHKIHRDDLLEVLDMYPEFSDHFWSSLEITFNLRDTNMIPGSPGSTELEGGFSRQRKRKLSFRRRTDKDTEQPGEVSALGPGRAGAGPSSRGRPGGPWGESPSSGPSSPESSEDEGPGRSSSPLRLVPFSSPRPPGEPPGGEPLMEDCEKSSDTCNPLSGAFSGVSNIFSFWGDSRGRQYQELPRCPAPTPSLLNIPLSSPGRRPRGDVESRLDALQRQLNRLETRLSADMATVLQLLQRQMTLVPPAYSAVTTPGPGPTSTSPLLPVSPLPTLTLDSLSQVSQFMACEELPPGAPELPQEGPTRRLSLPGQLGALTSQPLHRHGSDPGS
Chain of Cytochrome P450 3A4 (P08684 whole entry): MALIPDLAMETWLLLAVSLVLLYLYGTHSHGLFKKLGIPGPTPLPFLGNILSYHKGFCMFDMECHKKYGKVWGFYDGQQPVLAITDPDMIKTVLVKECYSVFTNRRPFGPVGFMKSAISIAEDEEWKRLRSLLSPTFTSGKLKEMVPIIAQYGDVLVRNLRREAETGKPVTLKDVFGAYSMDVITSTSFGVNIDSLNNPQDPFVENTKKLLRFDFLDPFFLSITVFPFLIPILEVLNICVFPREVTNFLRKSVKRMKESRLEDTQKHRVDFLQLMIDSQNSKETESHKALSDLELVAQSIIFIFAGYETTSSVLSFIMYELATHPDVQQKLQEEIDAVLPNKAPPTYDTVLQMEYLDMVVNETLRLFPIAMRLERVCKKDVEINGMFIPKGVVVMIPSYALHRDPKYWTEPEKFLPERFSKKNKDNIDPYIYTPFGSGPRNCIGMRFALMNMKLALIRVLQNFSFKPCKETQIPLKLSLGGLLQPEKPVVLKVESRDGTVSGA
Chain of Cytochrome P450 2C19 (P33261 whole entry): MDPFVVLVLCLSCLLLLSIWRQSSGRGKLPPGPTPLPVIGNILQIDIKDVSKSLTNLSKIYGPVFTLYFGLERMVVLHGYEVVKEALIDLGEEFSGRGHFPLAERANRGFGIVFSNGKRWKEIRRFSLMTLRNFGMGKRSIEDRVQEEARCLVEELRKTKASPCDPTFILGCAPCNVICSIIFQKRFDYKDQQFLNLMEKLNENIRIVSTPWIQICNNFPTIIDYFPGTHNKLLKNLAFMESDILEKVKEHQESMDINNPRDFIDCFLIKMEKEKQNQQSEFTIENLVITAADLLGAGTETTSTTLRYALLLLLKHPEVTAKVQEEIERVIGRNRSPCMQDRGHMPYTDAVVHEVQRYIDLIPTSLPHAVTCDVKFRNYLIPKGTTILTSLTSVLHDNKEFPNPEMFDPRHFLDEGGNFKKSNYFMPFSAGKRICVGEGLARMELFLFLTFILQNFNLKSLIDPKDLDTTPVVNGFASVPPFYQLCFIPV

Compound `COC(=O)N(CC(=O)O)Cc1cc(OCc2nc(-c3ccc(Cl)cc3)oc2C)ccc1F` has an Activity (Syrian golden hamster [1]) of 48%, an Activity (Syrian golden hamster [2]) of 18.7% and an Activity (Syrian golden hamster [3]) of 67.5%. It also gave an Activity (Syrian golden hamster [4]) of 61%, an Activity (Syrian golden hamster [5]) of 74% and an Activity (Syrian golden hamster [6]) of 50%. It also gave a Tmax [7] of 0.9 h, a Cmax [8] of 1500 nM and an AUC(0-t) at 8 h [9] of 17 µM·h. The AUC(0-t) at 8 h [10] was 4 µM·h, the AUC(0-t) at 8 h [11] was 7.5 µM·h and the AUC(0-t) at 8 h [12] was 8.5 µM·h. It also gave a clearance [13] of 10.7 mL/min/kg, a half-life [14] of 26.3 h and a bioavailability [15] of 66%. It also gave a fraction unbound [16] of 0.002, a fraction unbound [17] of 0.01 and an IC50 (Cytochrome P450 3A4) of over 40 µM. For the same compound, the Activity (Mus musculus [18]) was 747%, the IC50 (Cytochrome P450 2C19) was over 150 µM and the IC50 [19] was over 80 µM. For the same compound, the inhibition (Homo sapiens) was 12%, the Activity [20] was -5.4% and the Activity (Rhesus monkey) was “Non-toxic”. The Activity (Mus musculus [21]) was 14.2%, the Activity (Mus musculus [22]) was 23.5% and the Activity (Mus musculus [23]) was “Dose-dependent effect”.
